The results in this text go back to US9850283B2, “Macrocyclic inhibitors of the PD-1/PD-L1 and CD80(B7-1)/PD-L1 protein/protein interactions” (BRISTOL-MYERS SQUIBB COMPANY, priority 2013, dated 2017).

Read-outs that look alike come from different tables or passages of the source. Starred links: 1 amine or outer side, 2 acyl side, 3 side chain; linkers in the order of their positions; H or OH if unused. Positions of bridges follow the written chain, without caps; N, C: chain ends. Non-standard residues stand in square brackets, D forms with d. Residues, ends and D or L forms follow the SMILES beside them. ξ: configuration not given here. Phe(3,4,5-F3) = N[C@@H](Cc1cc(F)c(F)c(F)c1)C(=O)O; Phe(3-Cl) = N[C@@H](Cc1cccc(Cl)c1)C(=O)O; X11 = CC1(C)CC[C@H](C(=O)[*:2])N1[*:1]; d(cisHyp) = O=C(O)[C@H]1C[C@@H](O)CN1; Phe(2-Me) = Cc1ccccc1C[C@H](N)C(=O)O; Bta = N[C@@H](Cc1csc2ccccc12)C(=O)O; Hyp = O=C(O)[C@@H]1C[C@@H](O)CN1; NMeF = CN[C@@H](Cc1ccccc1)C(=O)O; X4 = O=C([C@H]1COCCN1[*:1])[*:2]; AllylGly = C=CC[C@H](N)C(=O)O; NMeNle = CCCC[C@H](NC)C(=O)O; NMeM = CN[C@@H](CCSC)C(=O)O; NMeA = CN[C@@H](C)C(=O)O; Orn = NCCC[C@H](N)C(=O)O; Dab = NCC[C@H](N)C(=O)O; Dap = NC[C@H](N)C(=O)O; ξC = NC(CS)C(=O)O; Sar = CNCC(=O)O

Test [1] addresses T1, LK35.2-hPD-L1 cells / PE-labeled PD-1-Ig (Homo sapiens, UniProt Q9NZQ7).
T1 construct: expressed in transfected cells; host or cells: LK35.2 mouse B cell line
Briefly: LK35.2-hPD-L1 cell binding high-content screening assay. Particulars: cluster symbol, read-out: CBA IC50 cluster. The class given is cell-based. A digest of the protocol:
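Readout: high-content imaging of PE-PD-1-Ig bound to LK35.2-hPD-L1 cells. Cells plated overnight (RPMI/10% FCS); compound + 1 nM PE-PD-1-Ig, 1 h, 37 °C; 3× dPBS wash before imaging.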

Test [2] concerns the target T2, Human PD-L1/PD-1 (Homo sapiens, UniProt Q9NZQ7).
T2 construct: made in house; host or cells: HEK293T
Description: HTRF PD-1-Ig/PD-L1-His binding assay (human PD-L1). As to conditions: cluster symbol; read-out: HTRF IC50 cluster. A digest of the protocol: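 Readout: time-resolved FRET between Eu cryptate-labeled anti-Ig (1 nM final) and APC-labeled anti-His (20 nM final) antibodies. These detect interaction of Fc-fused PD-1 with His-tagged human PD-L1 in dPBS containing 0.1% BSA and 0.05% Tween-20.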

The mark [3] stands for this setting: cell binding assay, cell line not given.
Where [4] appears, read: cell line of CBA not given (LK35.2-hPD-L1 or 293T-hPD-L1).

T2 sequence (Q9NZQ7 with tags, fused parts or gaps): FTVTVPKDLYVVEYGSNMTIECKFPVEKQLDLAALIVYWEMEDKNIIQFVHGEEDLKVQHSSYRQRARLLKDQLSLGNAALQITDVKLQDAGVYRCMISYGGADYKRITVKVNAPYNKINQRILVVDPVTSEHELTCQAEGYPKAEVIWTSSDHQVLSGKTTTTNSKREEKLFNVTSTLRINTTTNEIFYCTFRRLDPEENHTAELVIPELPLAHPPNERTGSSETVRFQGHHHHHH
T1 sequence (Q9NZQ7 19-290): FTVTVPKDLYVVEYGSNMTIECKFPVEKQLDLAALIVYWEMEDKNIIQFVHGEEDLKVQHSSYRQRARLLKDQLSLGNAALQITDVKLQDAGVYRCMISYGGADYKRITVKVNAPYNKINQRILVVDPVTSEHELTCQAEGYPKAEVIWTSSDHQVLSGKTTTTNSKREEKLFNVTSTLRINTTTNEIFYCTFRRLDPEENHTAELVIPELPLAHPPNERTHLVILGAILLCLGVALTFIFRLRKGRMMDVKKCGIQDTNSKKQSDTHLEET

A word on the IC50: it is the point on the concentration scale where inhibition reaches its midpoint. As for `CCCC[C@H]1C(=O)N2C[C@H](O)C[C@@H]2C(=O)N[C@@H](CC(=O)O)C(=O)N[C@@H](C(C)C)C(=O)N(C)[C@@H](Cc2ccccc2)C(=O)N[C@@H](CCCN)C(=O)N2CCOC[C@@H]2C(=O)N[C@@H](Cc2c[nH]c3ccccc23)C(=O)N[C@@H](Cc2ccc(O)cc2)C(=O)N[C@@H](CCCN)C(=O)N[C@H](C(=O)NCC(N)=O)CSCC(=O)N[C@@H](Cc2cc(F)c(F)c(F)c2)C(=O)N(C)[C@@H](Cc2ccccc2)C(=O)N1C` [Example 3598] ({CH2CO}-[Phe(3,4,5-F3)][NMeF][NMeNle][d(cisHyp)]DV[NMeF][Orn][X4]WY[Orn]CG-NH2; thioether N-13), the IC50 in test [1] (setting [3]) fell in the range of 0.158 to 4.71 nM; in test [2] it was 0.385 to 6.74 nM.

Take `CCCC[C@H]1C(=O)N(C)[C@@H](CCCC)C(=O)N[C@@H](CCN)C(=O)N[C@H](C(=O)NCC(N)=O)CSCC(=O)N[C@@H](Cc2ccc(O)cc2)C(=O)N(C)[C@@H](C)C(=O)N[C@@H](CC(N)=O)C(=O)N2CCC[C@H]2C(=O)N[C@@H](Cc2cnc[nH]2)C(=O)N[C@@H](CCC(=O)O)C(=O)N2C[C@H](O)C[C@H]2C(=O)N[C@@H](Cc2c[nH]c3ccccc23)C(=O)N[C@@H](CCN)C(=O)N[C@@H](Cc2c[nH]c3ccccc23)C(=O)N1C` [Example 5028] ({CH2CO}-Y[NMeA]NPHE[Hyp]W[Dab]W[NMeNle][NMeNle][Dab]CG-NH2; thioether N-14): the IC50 in test [1] (setting [3]) was in the range of 0.158 to 4.71 nM; in test [2] it was 0.385 to 6.74 nM.

Take `CCCC[C@H]1C(=O)N(C)CC(=O)N[C@@H](CC(=O)O)C(=O)N[C@@H](C(C)C)C(=O)N[C@@H](Cc2ccccc2C)C(=O)N[C@@H](Cc2ccc(O)cc2)C(=O)N(C)CC(=O)N[C@@H](Cc2c[nH]c3ccccc23)C(=O)N[C@@H](Cc2ccc(O)cc2)C(=O)N[C@@H](CC(C)C)C(=O)N[C@H](C(=O)NCC(N)=O)CSCC(=O)N[C@@H](Cc2ccccc2)C(=O)N(C)[C@@H](Cc2ccccc2)C(=O)N1C` [Example 3133] ({CH2CO}-F[NMeF][NMeNle][Sar]DV[Phe(2-Me)]Y[Sar]WYLCG-NH2; thioether N-13): the IC50 was above 74.3 nM in test [1] (setting [4]) and above 30.5 nM in test [2].

`C=CC[C@@H]1NC(=O)[C@H](Cc2c[nH]c3ccccc23)NC(=O)[C@@H]2CCCN2C(=O)[C@H](CC(C)C)NC(=O)[C@H](CN)NC(=O)[C@@H]2CCCN2C(=O)[C@H](CC(N)=O)NC(=O)[C@H](C)N(C)C(=O)[C@H](Cc2ccc(O)cc2)NC(=O)CSC[C@@H](C(=O)NCC(N)=O)NC(=O)[C@H](CC=C)NC(=O)[C@H](CCCC)N(C)C(=O)[C@H](CCCC)N(C)C(=O)[C@H](Cc2c[nH]c3ccccc23)NC1=O` [Example 7022] ({CH2CO}-Y[NMeA]NP[Dap]LPW[AllylGly]W[NMeNle][NMeNle][AllylGly]CG-NH2; thioether N-14): the IC50 in test [1] (setting [3]) lay in the range of 4.78 to 72.9 nM; in test [2], 6.76 to 30.3 nM.

For the compound `CCCC[C@H]1C(=O)N(C)CC(=O)N[C@@H](CC(=O)O)C(=O)N[C@@H](C(C)C)C(=O)N(C)[C@@H](Cc2ccccc2)C(=O)N[C@@H](Cc2ccc(O)cc2)C(=O)N2[C@H](CCC2(C)C)C(=O)N[C@@H](Cc2c[nH]c3ccccc23)C(=O)N[C@@H](Cc2ccc(O)cc2)C(=O)N[C@@H](CC(C)C)C(=O)N[C@H](C(=O)NCC(N)=O)CSCC(=O)N[C@@H](Cc2ccccc2)C(=O)N(C)[C@@H](Cc2ccccc2)C(=O)N1C` [Example 3184] ({CH2CO}-F[NMeF][NMeNle][Sar]DV[NMeF]Y[X11]WYLCG-NH2; thioether N-13), the results for the half-maximal inhibitory concentration (IC50) in test [1] (setting [4]) and in test [2] were above 74.3 nM and above 30.5 nM, respectively.

For the compound `CCCC[C@H]1C(=O)N(C)[C@@H](CCCC)C(=O)N[C@@H](C)C(=O)N[C@H](C(=O)NCC(N)=O)CSCC(=O)N[C@@H](Cc2ccc(O)cc2)C(=O)N(C)[C@@H](C)C(=O)N[C@@H](CCC(=O)O)C(=O)N2CCC[C@H]2C(=O)N[C@@H](Cc2cnc[nH]2)C(=O)N[C@@H](CCCN)C(=O)N2C[C@H](O)C[C@H]2C(=O)N[C@@H](Cc2c[nH]c3ccccc23)C(=O)N[C@@H](CO)C(=O)N[C@@H](Cc2c[nH]c3ccccc23)C(=O)N1C` [Example 1178] ({CH2CO}-Y[NMeA]EPH[Orn][Hyp]WSW[NMeNle][NMeNle]ACG-NH2; thioether N-14), the IC50 in test [1] (setting [4]) lay in the range of 4.78 to 72.9 nM; in test [2] it was 0.385 to 6.74 nM.

Regarding `CCCC[C@H]1C(=O)N(C)CC(=O)N[C@@H](CCCNC(=N)N)C(=O)N[C@H](C(=O)NCC(N)=O)CSCC(=O)N[C@@H](Cc2ccccc2)C(=O)N(C)[C@@H](C)C(=O)N[C@@H](CC(N)=O)C(=O)N2CCC[C@H]2C(=O)N[C@@H](Cc2cnc[nH]2)C(=O)N[C@@H](CC(C)C)C(=O)N(C)CC(=O)N[C@@H](Cc2c[nH]c3ccccc23)C(=O)N[C@@H](CO)C(=O)N[C@@H](Cc2c[nH]c3ccccc23)C(=O)N1C` [Example 5027] (HELM PEPTIDE1{[O=C(C[*:3])[*:2]].F.[meA].N.P.H.L.[Sar].W.S.W.[CCCC[C@@H](C(=O)[*:2])N(C)[*:1]].[Sar].R.C.G.[am]}$PEPTIDE1,PEPTIDE1,1:R3-15:R3$$$V2.0), the results for the IC50 in test [1] (setting [3]) and in test [2] were above 74.3 nM and above 30.5 nM, respectively.

Regarding `CCCC[C@H]1C(=O)N(C)[C@@H](CCSC)C(=O)N[C@@H](C)C(=O)NC(C(=O)NCC(N)=O)CSCC(=O)N[C@@H](Cc2ccc(O)cc2)C(=O)N(C)[C@@H](C)C(=O)N[C@@H](CC(N)=O)C(=O)N2CCC[C@H]2C(=O)N[C@@H](CN)C(=O)N[C@@H](CC(C)C)C(=O)N2C[C@H](O)C[C@H]2C(=O)N[C@@H](Cc2c[nH]c3ccccc23)C(=O)N[C@@H](CO)C(=O)N[C@@H](Cc2csc3ccccc23)C(=O)N1C` (stereo partly shown) [Example 9088] ({CH2CO}-Y[NMeA]NP[Dap]L[Hyp]WS[Bta][NMeNle][NMeM]A[ξC]G-NH2; thioether N-14), the IC50 in test [1] (setting [3]) was 0.158 to 4.71 nM; in test [2] it was 0.385 to 6.74 nM.

For the compound `CCCC[C@H]1C(=O)N(C)[C@@H](C)C(=O)N[C@@H](CCCNC(=N)N)C(=O)NC(C(=O)NCC(N)=O)CSCC(=O)N[C@@H](Cc2ccc(O)cc2)C(=O)N(C)[C@@H](C)C(=O)N[C@@H](CC(N)=O)C(=O)N2CCC[C@H]2C(=O)N[C@@H](CO)C(=O)N[C@@H](CC(C)C)C(=O)N2CCC[C@H]2C(=O)N[C@@H](Cc2c[nH]c3ccccc23)C(=O)N[C@@H](CO)C(=O)N[C@@H](Cc2c[nH]c3ccccc23)C(=O)N1C` (stereo partly shown) [Example 9110] ({CH2CO}-Y[NMeA]NPSLPWSW[NMeNle][NMeA]R[ξC]G-NH2; thioether N-14), the IC50 in test [1] (setting [3]) was 4.78 to 72.9 nM; in test [2], 0.385 to 6.74 nM.

As to `CCCC[C@H]1C(=O)N(C)CC(=O)N[C@@H](CC(=O)O)C(=O)N[C@@H](C(C)C)C(=O)N[C@@H](Cc2cccc(Cl)c2)C(=O)N[C@@H](Cc2ccc(O)cc2)C(=O)N(C)CC(=O)N[C@@H](Cc2c[nH]c3ccccc23)C(=O)N[C@@H](Cc2ccc(O)cc2)C(=O)N[C@@H](CC(C)C)C(=O)N[C@H](C(=O)NCC(N)=O)CSCC(=O)N[C@@H](Cc2ccccc2)C(=O)N(C)[C@@H](Cc2ccccc2)C(=O)N1C` [Example 3131] ({CH2CO}-F[NMeF][NMeNle][Sar]DV[Phe(3-Cl)]Y[Sar]WYLCG-NH2; thioether N-13), the IC50 in test [1] (setting [4]) was above 74.3 nM; in test [2] it was above 30.5 nM.

`CCCC[C@H]1C(=O)N(C)[C@@H](CCCC)C(=O)N[C@@H](CCCNC(=N)N)C(=O)N[C@H](C(=O)NCC(N)=O)CSCC(=O)N[C@@H](Cc2ccc(O)cc2)C(=O)N(C)[C@@H](C)C(=O)N[C@@H](CCCCN)C(=O)N2CCC[C@H]2C(=O)N[C@@H](Cc2c[nH]cn2)C(=O)N[C@@H](CCC(=O)O)C(=O)N2C[C@H](O)C[C@H]2C(=O)N[C@@H](Cc2c[nH]c3ccccc23)C(=O)N[C@@H](CO)C(=O)N[C@@H](Cc2c[nH]c3ccccc23)C(=O)N1C` [Example 5124] ({CH2CO}-Y[NMeA]KPHE[Hyp]WSW[NMeNle][NMeNle]RCG-NH2; thioether N-14): the IC50 in test [1] (setting [3]) lay within 0.158 to 4.71 nM; in test [2], 0.385 to 6.74 nM.
